Assay results reported in patent US20080220031A1, “Dermocosmetic Preparations” (BASF Aktiengesellschaft, priority 2005, published 2008).

assay: not given; conditions: footnotes 2-4: BASF Technical Information / H. Zweifel; cited from earlier work

| Molecule | pKa |
| --- | --- |
| CC1(C)CC(N2CN3C(=O)N4CN(C5CC(C)(C)NC(C)(C)C5)CN5C(=O)N(C2)C3C45)CC(C)(C)N1 | 9.8^2) |

assay: Oxidation test squalene test (Raman, azo initiator V65); conditions: 2500 ppm test substance, azo initiator V65, 30 days at 40° C., squalene content by Raman spectrum
Protocol: 3 ml of a 2% strength solution of the azo initiator V65 (from Wako) are introduced together with 2500 ppm of test substance (based on the squalene solution) into 12×100 […] Fiolax test tubes and thoroughly mixed using a laboratory shaker. The samples are then stored open in a through-circulation drying oven for 30 days at 40° C. At intervals of 7 days, the squalene content of the samples is determined by means of the Raman spectrum and chemometric evaluation. The datapoints are documented in an XY graph and the efficiency of the test substance is determined from the slope of the decomposition curves in comparison with a reference sample without test substance. The slope of the reference sample divided by the slope of the test substance sample gives the factor Q_Raman.

| Molecule | Qraman (slope of reference sample divided by slope of test substance sample) |
| --- | --- |
| CN1C(C)(C)CC(N(C=O)CCCCCCN(C=O)C2CC(C)(C)N(C)C(C)(C)C2)CC1(C)C | 2.4 |
| O=C1O[C@H]([C@@H](O)CO)C(O)=C1O [Ascorbic acid] | 1.2 |
| CCCCCCCCCCCCC1CC(=O)N(C2CC(C)(C)NC(C)(C)C2)C1=O (stereo not drawn) [drawing 31] | 7.1 |
| CC(ON1C(C)(C)CC(O)CC1(C)C)c1ccccc1 (stereo not drawn) | 1.3 |
| CN1C(C)(C)CC(N2CN3C(=O)N4CN(C5CC(C)(C)N(C)C(C)(C)C5)CN5C(=O)N(C2)C3C45)CC1(C)C | 2.2 |
| COC(=O)C(CO)ON1C(C)(C)CC(OC)CC1(C)C (stereo not drawn) | 1.8 |
| CC1(C)CC(N2CN3C(=O)N4CN(C5CC(C)(C)NC(C)(C)C5)CN5C(=O)N(C2)C3C45)CC(C)(C)N1 | 1.3 |
| CCCCCCCCON1C(C)(C)CC(OC(=O)CCCCCCCCC(=O)OC2CC(C)(C)N(OCCCCCCCC)C(C)(C)C2)CC1(C)C [Tinuvin 123] | 1.8 |
| CCCCCCCCCCCCC1CC(=O)N(C2CC(C)(C)N(C)C(C)(C)C2)C1=O (stereo not drawn) | 6.2 |
| Tocopherol | 1.4 |
| CCCCN(c1nc(NCCCN(CCN(CCCNc2nc(N(CCCC)C3CC(C)(C)N(C)C(C)(C)C3)nc(N(CCCC)C3CC(C)(C)N(C)C(C)(C)C3)n2)c2nc(N(CCCC)C3CC(C)(C)N(C)C(C)(C)C3)nc(N(CCCC)C3CC(C)(C)N(C)C(C)(C)C3)n2)c2nc(N(CCCC)C3CC(C)(C)N(C)C(C)(C)C3)nc(N(CCCC)C3CC(C)(C)N(C)C(C)(C)C3)n2)nc(N(CCCC)C2CC(C)(C)N(C)C(C)(C)C2)n1)C1CC(C)(C)N(C)C(C)(C)C1 | 1.4 |

assay: Solubility of various HAS compounds in Miglyol 812; type: physicochemical; conditions: introduced in portions into 10 g of Miglyol, stirred at room temperature
Text: Experimental procedure: The respective MS compound was introduced gradually in small portions into 10 g of Miglyol and in each case stirred at room temperature until it had completely dissolved.

| Molecule | Solubility in Miglyol 812 |
| --- | --- |
| CC1(C)CC(OC(=O)CCCCCCCCC(=O)OC2CC(C)(C)NC(C)(C)C2)CC(C)(C)N1 [Tinuvin ® 770] | 4.7% |
| CCCCCCCCCCCCC1CC(=O)N(C2CC(C)(C)NC(C)(C)C2)C1=O (stereo not drawn) [2-Dodecyl-N-(2,2,6,6-tetramethyl-4-piperidinyl)succinimide] | min. 50% |
| CC1(C)CC(N(C=O)CCCCCCN(C=O)C2CC(C)(C)NC(C)(C)C2)CC(C)(C)N1 [Uvinul ® 4050H] | insoluble |
